Assay [1] addresses BCL6 BTB domain (biotin-thrombin-BCL6 amino acids 1-129) (Homo sapiens (Human), UniProt P41182). Put plainly: Surface Plasmon Resonance (SPR) assay. The class given is binding. The note with it: Biacore T200, single cycle kinetic analysis. On the procedure:
Surface Plasmon Resonance (SPR) Assay
SPR studies were performed using a Biacore™ T200 instrument (GE Health Sciences Inc.). […] The Biacore flow rate was set at 100 μl/min. […] Curve fitting and KD calculations were performed with the Biacore T200 Evaluation software (GE Health Sciences Inc).
In general terms: Surface plasmon resonance follows binding to a sensor surface in real time, without labels.

Assay [2] relates to BCL6 reporter construct in SuDHL4-3×BCL6-TK-Luc cells. Put plainly: Cell-based luciferase assay (BCL6 reporter). The note with it: 48 h, read-out: Luc IC50. How it is done:
Cell-Based Luciferase Assay:
A BCL6 reporter construct containing three copies of the consensus BCL6 binding site, the TK promoter, and the firefly luciferase gene was stably expressed in SuDHL4 cells after lentivirus infection and selection with Blasticidin. SuDHL4-3×BCL6-TK-Luc cells were seeded into a Viewplate 384-well assay dish at 15,000 cells/well in […] (Alpha-MEM high glucose containing 10% FBS, 25 mM HEPES, […] GlutaMAX, 100 µg/mL Normocin, and […] Gentamycin, Invitrogen). A HP D300 digital dispenser was used to dose cells with DMSO or test compounds across a 10-point range of concentrations (high dose of 10 μM), and cultures were grown in a humidified 5% CO2 incubator at 37° C. After two days, plates were removed from the incubator and equilibrated to room temperature. An equal volume of neolite reporter gene assay reagent was added to each well, and samples were processed according to the manufacturer's instructions (Perkin Elmer). The luminescent signal was measured using an Envision plate reader equipped with a US-Luminescence detector.

The next assay concerns Karpas422 cells. Put plainly: Tumor cell growth inhibition assay. The class given is cell-based. The note with it: Homo sapiens, KARPAS-422, 144 h, read-out: GI Karpas EC50. How it is done: Tumor Cell Growth Inhibition Assay:
Karpas422 cells were seeded into a 96-well plate at 2,000 cells/well in 150 μl medium (Alpha-MEM containing 10% FBS, […] Normocin, and […] Gentamycin, Invitrogen). A HP D300 digital dispenser was used to dose cells with DMSO or test compounds across a 10-point range of concentrations (high dose of 5 μM), and cultures were grown in a humidified 5% CO2 incubator at 37° C. After six days, plates were removed from incubator and equilibrated to room temperature. An equal volume of ATPlite assay reagent was added to each well, and samples were processed according to the manufacturer's instructions (Perkin Elmer). The luminescent signal was measured using an Envision plate reader equipped with a US-Luminescence detector.

Setting [3] is: SuDHL4-3×BCL6-TK-Luc cells, two days.
Setting [4] is: Karpas422 cells, six days, ATPlite.

Like-named read-outs stand apart in the source and are kept apart here.

As a reminder, the Kd is the constant that tells how readily two partners part at equilibrium. Lower therefore signals higher affinity. In general, IC50 refers to the concentration needed to halve the response being measured. A word on the EC50: it is the concentration needed to bring the measured effect to its halfway point. Consider `C[C@H]1CN(C)CCN1c1cc(NC(=O)Cn2cc(-c3cc(C(N)=O)c(O)c(F)c3F)c3c(=O)n4c(nc32)COCC4)c(Cl)c(F)n1` [I-33, (S)-5-(1-(2-((3-chloro-6-(2,4-dimethylpiperazin-1-yl)-2-fluoropyridin-4-yl)amino)-2-oxoethyl)-4-oxo-4,6,7,9-tetrahydro-1H-pyrrolo[2′,3′:4,5]pyrimido[2,1-c][1,4]oxazin-3-yl)-3,4-difluoro-2-hydroxybenzamide], for which, in assay [1], the Kd worked out at 11 nM. The IC50 in assay [2] was 149 nM. Further, the EC50 in the assay on Karpas422 cells came to 214 nM.

`C[C@H]1CN(C2COC2)CCN1c1cc(NC(=O)Cn2cc(-c3cc(C(N)=O)c(O)c(F)c3F)c3c(=O)n4c(nc32)COCC4)c(Cl)c(F)n1` [I-34, (S)-5-(1-(2-((3-chloro-2-fluoro-6-(2-methyl-4-(oxetan-3-yl)piperazin-1-yl)pyridin-4-yl)amino)-2-oxoethyl)-4-oxo-4,6,7,9-tetrahydro-1H-pyrrolo[2′,3′:4,5]pyrimido [2,1-c][1,4]oxazin-3-yl)-3,4-difluoro-2-hydroxy-benzamide] showed a Kd in assay [1] of 7.24 nM. Further, the IC50 in assay [2] came to 155 nM. Moreover, in the assay on Karpas422 cells, the concentration giving a half-maximal response (EC50) is 177 nM.

`C[C@H]1CN(CCC(F)(F)F)CCN1c1cc(NC(=O)Cn2cc(-c3cc(C(N)=O)c(O)c(F)c3F)c3c(=O)n4c(nc32)CCC4)c(Cl)cn1` [I-35, (S)-5-(1-(2-((5-chloro-2-(2-methyl-4-(3,3,3-trifluoropropyl)piperazin-1-yl)pyridin-4-yl)amino)-2-oxoethyl)-4-oxo-4,6,7,8-tetrahydro-1H-dipyrrolo[1,2-a:2′,3′-d]pyrimidin-3-yl)-3,4-difluoro-2-hydroxy-benzamide] yielded a Kd in assay [1] of 24.3 nM. Besides, the IC50 in assay [2] (setting [3]) was 237 nM. Moreover, the 50% effective concentration (EC50) in the assay on Karpas422 cells (setting [4]) stood at 194 nM.

For the compound `CN1CCN(c2cc(NC(=O)Cn3cc(-c4cc(C(N)=O)c(O)c(F)c4F)c4c(=O)n5c(nc43)CCC5)c(Cl)cn2)CC1` [I-36, 5-(1-(2-((5-chloro-2-(4-methylpiperazin-1-yl)pyridin-4-yl)amino)-2-oxoethyl)-4-oxo-4,6,7,8-tetrahydro-1H-dipyrrolo[1,2-a:2′,3′-d]pyrimidin-3-yl)-3,4-difluoro-2-hydroxy-benzamide], binding in assay [1] was characterised by a dissociation constant (Kd) of 23.2 nM. The IC50 in assay [2] was 701 nM. Further, the EC50 in the assay on Karpas422 cells was 480 nM.

`CO[C@@H](C)CN1CCN(c2cc(NC(=O)Cn3cc(-c4cc(C(N)=O)c(O)c(F)c4F)c4c(=O)n5c(nc43)CCC5)c(Cl)c(F)n2)[C@@H](C)C1` [I-37, 5-(1-(2-((3-chloro-2-fluoro-6-((S)-4-((S)-2-methoxypropyl)-2-methylpiperazin-1-yl)pyridin-4-yl)amino)-2-oxoethyl)-4-oxo-4,6,7,8-tetrahydro-1H-dipyrrolo[1,2-a:2′,3′-d]pyrimidin-3-yl)-3,4-difluoro-2-hydroxy-benzamide] had a Kd in assay [1] of 14.4 nM. Further, the IC50 in assay [2] (setting [3]) was determined as 109 nM. The EC50 in the assay with Karpas422 cells (setting [4]) turned out to be 113 nM.

Regarding `C[C@@H](C1CC1)N1CCN(c2cc(NC(=O)Cn3cc(-c4cc(C(N)=O)c(O)c(F)c4F)c4c(=O)n5c(nc43)CCC5)c(Cl)c(F)n2)[C@@H](C)C1` [I-38, 5-(1-(2-((3-chloro-6-((S)-4-((S)-1-cyclo-propylethyl)-2-methyl-piperazin-1-yl)-2-fluoropyridin-4-yl)amino)-2-oxoethyl)-4-oxo-4,6,7,8-tetrahydro-1H-dipyrrolo [1,2-a:2′,3′-d]pyrimidin-3-yl)-3,4-difluoro-2-hydroxybenzamide], the Kd in assay [1] is 32.5 nM. Also, the IC50 in assay [2] (setting [3]) was determined as 193 nM. In addition, in the assay with Karpas422 cells (setting [4]), the EC50 was 444 nM.

In assay [1], `C[C@H](C1CC1)N1CCN(c2cc(NC(=O)Cn3cc(-c4cc(C(N)=O)c(O)c(F)c4F)c4c(=O)n5c(nc43)CCC5)c(Cl)c(F)n2)[C@@H](C)C1` [I-39, 5-(1-(2-((3-chloro-6-((S)-4-((R)-1-cyclo-propylethyl)-2-methyl-piperazin-1-yl)-2-fluoropyridin-4-yl)amino)-2-oxoethyl)-4-oxo-4,6,7,8-tetrahydro-1H-dipyrrolo[1,2-a:2′,3′-d]pyrimidin-3-yl)-3,4-difluoro-2-hydroxy-benzamide] registered a Kd of 34.9 nM. For the same compound, the IC50 in assay [2] (setting [3]) is 210 nM. For the same compound, the EC50 in the assay on Karpas422 cells (setting [4]) is 384 nM.
